Test results taken from ChEMBL document CHEMBL1150977, “A quantitative analysis of kinase inhibitor selectivity” (Nat Biotechnol, 2008).
pKd: −log10 of the molar value.

Key:
[1] = target: Serine/threonine-protein kinase Nek6 (Homo sapiens, UniProt Q9HC98)
[2] = target: Dual specificity protein kinase CLK3 (Homo sapiens, UniProt P49761)
[3] = target: T1, Serine/threonine-protein kinase Nek9 (Homo sapiens, UniProt Q8TD19)
T1 sequence (Q8TD19 whole entry): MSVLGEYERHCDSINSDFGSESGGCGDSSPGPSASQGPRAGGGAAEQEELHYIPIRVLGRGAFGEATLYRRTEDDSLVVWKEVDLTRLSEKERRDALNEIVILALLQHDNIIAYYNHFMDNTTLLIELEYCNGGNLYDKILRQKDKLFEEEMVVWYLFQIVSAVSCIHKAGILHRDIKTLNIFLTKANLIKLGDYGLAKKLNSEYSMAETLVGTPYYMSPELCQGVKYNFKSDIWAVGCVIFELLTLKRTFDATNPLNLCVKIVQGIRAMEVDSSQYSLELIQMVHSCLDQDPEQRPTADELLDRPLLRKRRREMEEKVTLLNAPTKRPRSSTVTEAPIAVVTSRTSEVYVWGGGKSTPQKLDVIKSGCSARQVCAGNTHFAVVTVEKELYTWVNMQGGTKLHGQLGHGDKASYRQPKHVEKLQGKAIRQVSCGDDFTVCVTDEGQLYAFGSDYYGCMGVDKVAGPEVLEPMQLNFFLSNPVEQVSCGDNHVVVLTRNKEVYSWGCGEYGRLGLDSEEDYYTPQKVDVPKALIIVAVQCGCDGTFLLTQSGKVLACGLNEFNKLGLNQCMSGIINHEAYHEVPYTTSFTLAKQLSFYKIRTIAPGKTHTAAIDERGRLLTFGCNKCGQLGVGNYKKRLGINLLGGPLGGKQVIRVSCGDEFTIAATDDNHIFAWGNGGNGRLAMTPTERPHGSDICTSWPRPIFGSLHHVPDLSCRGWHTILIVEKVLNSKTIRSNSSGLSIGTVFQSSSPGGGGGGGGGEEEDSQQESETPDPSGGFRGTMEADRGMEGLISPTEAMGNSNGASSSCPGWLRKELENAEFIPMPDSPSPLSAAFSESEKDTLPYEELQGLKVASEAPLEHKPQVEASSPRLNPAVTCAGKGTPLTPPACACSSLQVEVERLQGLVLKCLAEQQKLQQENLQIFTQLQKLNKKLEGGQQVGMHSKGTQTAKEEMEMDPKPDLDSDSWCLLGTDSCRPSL

[4] = target: Serine/threonine-protein kinase 38-like (Homo sapiens, UniProt Q9Y2H1)
Ephrin type-A receptor 1 = target: T2, Ephrin type-A receptor 1 (Homo sapiens, UniProt P21709)
T2 sequence (P21709 whole entry): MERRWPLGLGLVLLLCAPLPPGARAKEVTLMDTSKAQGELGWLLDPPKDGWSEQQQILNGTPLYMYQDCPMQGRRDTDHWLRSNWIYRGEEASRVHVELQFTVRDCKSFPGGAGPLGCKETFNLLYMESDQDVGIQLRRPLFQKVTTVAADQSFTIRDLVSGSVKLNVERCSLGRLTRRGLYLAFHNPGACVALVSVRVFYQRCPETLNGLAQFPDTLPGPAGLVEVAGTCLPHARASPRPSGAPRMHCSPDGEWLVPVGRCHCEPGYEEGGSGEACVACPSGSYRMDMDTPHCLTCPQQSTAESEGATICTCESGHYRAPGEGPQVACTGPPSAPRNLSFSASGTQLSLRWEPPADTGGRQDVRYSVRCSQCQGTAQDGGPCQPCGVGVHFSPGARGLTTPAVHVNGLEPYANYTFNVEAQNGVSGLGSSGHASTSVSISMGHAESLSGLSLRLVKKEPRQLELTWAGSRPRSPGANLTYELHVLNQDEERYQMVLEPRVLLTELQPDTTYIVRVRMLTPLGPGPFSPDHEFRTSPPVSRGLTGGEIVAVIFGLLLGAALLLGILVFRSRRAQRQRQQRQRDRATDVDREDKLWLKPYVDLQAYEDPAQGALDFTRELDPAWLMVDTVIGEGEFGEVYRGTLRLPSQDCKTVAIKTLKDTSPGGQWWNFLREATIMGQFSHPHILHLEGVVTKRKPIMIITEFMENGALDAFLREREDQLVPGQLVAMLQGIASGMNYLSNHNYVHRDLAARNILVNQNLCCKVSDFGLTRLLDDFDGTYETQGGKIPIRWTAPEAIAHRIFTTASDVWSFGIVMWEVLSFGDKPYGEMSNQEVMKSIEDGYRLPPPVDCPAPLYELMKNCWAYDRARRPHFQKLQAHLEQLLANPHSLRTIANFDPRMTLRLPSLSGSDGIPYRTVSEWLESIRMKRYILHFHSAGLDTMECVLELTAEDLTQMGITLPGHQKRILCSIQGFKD

[5] = target: Non-receptor tyrosine-protein kinase TYK2 (Homo sapiens, UniProt P29597)
[6] = target: T3, Dual specificity mitogen-activated protein kinase kinase 3 (Homo sapiens, UniProt P46734)
T3 sequence (P46734 whole entry): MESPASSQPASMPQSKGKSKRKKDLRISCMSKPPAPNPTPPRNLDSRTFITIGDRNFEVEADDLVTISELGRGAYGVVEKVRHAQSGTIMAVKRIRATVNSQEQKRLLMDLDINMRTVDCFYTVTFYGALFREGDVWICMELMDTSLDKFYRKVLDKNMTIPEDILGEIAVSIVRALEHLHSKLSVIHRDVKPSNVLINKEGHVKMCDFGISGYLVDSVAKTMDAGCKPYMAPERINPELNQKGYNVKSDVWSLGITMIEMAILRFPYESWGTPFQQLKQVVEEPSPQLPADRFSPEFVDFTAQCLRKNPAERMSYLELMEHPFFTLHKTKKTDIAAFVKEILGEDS

Insulin receptor = Insulin receptor (Homo sapiens, UniProt P06213)
[7] = target: Glycogen synthase kinase-3 alpha (Homo sapiens, UniProt P49840)
Chain of Glycogen synthase kinase-3 alpha (P49840 whole entry): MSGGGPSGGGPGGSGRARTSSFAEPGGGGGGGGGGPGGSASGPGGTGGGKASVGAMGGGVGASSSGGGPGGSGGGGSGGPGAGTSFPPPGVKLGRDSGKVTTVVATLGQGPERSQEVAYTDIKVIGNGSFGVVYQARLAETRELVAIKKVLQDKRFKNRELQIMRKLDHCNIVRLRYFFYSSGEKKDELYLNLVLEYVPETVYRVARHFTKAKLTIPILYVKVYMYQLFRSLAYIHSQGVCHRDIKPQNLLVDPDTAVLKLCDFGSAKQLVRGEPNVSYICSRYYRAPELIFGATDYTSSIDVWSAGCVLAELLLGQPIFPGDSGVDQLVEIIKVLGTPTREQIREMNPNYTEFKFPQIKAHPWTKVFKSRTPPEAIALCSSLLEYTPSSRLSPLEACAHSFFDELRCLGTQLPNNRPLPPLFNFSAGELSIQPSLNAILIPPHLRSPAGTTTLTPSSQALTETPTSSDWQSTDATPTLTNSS

Chain of Serine/threonine-protein kinase Nek6 (Q9HC98 whole entry): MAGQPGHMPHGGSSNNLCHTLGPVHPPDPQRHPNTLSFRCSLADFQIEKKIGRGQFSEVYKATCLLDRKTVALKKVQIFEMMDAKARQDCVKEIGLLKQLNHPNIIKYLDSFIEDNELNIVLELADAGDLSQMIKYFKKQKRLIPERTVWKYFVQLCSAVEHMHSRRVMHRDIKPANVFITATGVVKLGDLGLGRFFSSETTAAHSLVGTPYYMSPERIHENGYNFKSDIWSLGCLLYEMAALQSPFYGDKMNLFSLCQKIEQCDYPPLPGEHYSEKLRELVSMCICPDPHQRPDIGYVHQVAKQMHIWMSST
Chain of Insulin receptor (P06213 28-758 limits assumed): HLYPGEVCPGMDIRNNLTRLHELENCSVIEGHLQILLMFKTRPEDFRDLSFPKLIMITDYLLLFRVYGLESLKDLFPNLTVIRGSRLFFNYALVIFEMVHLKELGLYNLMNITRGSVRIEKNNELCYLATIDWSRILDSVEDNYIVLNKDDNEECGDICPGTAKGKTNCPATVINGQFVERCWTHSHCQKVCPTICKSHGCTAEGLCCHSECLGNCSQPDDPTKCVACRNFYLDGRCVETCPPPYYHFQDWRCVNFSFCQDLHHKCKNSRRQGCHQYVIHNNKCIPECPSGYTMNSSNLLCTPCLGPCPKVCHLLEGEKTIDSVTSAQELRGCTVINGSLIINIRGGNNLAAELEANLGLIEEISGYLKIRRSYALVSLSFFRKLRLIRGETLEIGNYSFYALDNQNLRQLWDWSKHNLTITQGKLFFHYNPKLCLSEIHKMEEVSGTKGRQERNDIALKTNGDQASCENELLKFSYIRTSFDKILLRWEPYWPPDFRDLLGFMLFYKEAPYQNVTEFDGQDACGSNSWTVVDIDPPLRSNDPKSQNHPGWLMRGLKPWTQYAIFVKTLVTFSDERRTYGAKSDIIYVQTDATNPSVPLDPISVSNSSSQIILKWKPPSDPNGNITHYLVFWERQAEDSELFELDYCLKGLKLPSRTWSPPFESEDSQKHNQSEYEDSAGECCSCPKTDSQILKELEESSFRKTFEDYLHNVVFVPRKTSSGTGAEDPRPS
Chain of Insulin receptor (P06213 763-1382 limits assumed): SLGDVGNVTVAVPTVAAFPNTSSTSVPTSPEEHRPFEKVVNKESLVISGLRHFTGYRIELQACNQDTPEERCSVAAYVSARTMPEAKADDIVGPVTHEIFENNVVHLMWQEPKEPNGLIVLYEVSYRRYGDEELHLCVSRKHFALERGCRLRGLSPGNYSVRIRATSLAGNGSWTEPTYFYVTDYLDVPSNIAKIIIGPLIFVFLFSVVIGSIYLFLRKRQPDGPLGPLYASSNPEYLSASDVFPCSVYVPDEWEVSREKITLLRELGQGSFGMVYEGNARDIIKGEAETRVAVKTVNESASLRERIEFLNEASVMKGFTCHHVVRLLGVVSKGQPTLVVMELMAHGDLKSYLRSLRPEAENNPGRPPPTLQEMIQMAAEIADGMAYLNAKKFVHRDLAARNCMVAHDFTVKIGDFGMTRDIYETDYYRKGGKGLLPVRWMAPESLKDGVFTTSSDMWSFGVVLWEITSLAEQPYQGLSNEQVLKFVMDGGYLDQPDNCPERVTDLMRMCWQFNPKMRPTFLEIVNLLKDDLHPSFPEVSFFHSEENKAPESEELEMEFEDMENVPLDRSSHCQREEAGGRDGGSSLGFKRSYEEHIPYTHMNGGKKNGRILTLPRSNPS
Chain of Dual specificity protein kinase CLK3 (P49761 whole entry): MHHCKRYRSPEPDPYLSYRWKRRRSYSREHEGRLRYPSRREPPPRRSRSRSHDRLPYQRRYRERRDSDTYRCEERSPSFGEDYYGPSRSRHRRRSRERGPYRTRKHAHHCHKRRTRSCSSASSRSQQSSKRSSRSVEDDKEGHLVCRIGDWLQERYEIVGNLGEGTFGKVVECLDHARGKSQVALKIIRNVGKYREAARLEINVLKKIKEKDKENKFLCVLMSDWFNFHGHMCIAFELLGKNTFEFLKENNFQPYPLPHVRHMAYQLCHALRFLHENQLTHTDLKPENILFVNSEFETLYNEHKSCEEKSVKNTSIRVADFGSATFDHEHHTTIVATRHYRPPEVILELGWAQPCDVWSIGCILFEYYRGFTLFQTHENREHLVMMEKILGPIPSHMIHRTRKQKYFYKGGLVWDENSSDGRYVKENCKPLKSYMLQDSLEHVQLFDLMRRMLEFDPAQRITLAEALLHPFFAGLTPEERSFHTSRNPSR
Chain of Non-receptor tyrosine-protein kinase TYK2 (P29597 whole entry): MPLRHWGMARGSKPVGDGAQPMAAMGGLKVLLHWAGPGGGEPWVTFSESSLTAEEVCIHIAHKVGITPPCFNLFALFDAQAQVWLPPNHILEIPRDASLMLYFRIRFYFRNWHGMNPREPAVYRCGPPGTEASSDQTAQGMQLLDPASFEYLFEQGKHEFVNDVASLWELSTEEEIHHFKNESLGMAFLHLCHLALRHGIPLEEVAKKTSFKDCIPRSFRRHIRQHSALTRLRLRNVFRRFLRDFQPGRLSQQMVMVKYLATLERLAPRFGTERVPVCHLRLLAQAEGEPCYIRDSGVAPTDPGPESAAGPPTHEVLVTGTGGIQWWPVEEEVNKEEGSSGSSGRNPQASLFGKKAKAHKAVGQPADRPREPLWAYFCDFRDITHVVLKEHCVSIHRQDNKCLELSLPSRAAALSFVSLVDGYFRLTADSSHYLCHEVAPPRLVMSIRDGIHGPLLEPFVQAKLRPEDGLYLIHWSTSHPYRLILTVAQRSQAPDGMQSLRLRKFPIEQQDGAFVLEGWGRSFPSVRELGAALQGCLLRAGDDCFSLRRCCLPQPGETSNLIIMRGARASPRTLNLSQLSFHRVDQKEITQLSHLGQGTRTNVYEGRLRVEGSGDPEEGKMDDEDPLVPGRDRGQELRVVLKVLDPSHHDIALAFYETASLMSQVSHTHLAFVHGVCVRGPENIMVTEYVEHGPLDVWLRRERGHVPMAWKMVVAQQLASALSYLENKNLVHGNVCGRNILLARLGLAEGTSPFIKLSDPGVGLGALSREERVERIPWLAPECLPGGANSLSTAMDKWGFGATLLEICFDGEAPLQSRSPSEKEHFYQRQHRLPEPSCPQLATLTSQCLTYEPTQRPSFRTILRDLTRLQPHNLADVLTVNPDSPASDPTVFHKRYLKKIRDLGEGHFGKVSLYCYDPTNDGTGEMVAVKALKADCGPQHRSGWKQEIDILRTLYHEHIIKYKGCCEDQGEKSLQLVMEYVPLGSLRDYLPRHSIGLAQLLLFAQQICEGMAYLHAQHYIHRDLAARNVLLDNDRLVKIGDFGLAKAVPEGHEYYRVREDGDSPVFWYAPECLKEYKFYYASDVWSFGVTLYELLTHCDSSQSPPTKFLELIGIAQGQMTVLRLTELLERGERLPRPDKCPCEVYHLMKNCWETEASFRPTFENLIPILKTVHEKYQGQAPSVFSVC
Chain of Serine/threonine-protein kinase 38-like (Q9Y2H1 whole entry): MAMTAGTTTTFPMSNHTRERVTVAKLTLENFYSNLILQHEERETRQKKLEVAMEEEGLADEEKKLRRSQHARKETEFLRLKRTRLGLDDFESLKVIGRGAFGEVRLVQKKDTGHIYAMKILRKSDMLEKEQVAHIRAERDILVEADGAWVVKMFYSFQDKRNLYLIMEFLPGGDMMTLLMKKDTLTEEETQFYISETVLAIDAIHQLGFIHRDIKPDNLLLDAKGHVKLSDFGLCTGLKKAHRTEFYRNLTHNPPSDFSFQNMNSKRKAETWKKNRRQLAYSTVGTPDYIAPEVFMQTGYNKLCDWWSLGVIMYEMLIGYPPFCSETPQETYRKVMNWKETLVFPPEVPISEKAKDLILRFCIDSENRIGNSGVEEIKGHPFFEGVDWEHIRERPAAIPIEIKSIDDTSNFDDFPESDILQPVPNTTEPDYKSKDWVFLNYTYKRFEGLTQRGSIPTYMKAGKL

CCOc1cc2ncc(C#N)c(Nc3ccc(F)c(Cl)c3)c2cc1NC(=O)/C=C/CN(C)C [PELITINIB]
pKd [1]: < 5.00
pKd [2]: 5.25
pKd [3]: < 5.00
pKd [4]: < 5.00
pKd (Ephrin type-A receptor 1): < 5.00
pKd [5]: < 5.00
pKd [6]: < 5.00
pKd (Insulin receptor): < 5.00
pKd [7]: < 5.00

COCC(=O)NC/C=C/c1ccc2ncnc(Nc3ccc(Oc4ccc(C)nc4)c(C)c3)c2c1 [CP-724714]
pKd [1]: < 5.00
pKd [2]: < 5.00
pKd [3]: < 5.00
pKd [4]: < 5.00
pKd (Ephrin type-A receptor 1): < 5.00
pKd [5]: < 5.00
pKd [6]: < 5.00
pKd (Insulin receptor): < 5.00
pKd [7]: < 5.00

NC(=O)c1ccc(-c2nc(-c3ccc4c(c3)OCO4)c(-c3ccccn3)[nH]2)cc1 [SB-431542]
pKd [1]: < 5.00
pKd [2]: < 5.00
pKd [3]: < 5.00
pKd [4]: < 5.00
pKd (Ephrin type-A receptor 1): < 5.00
pKd [5]: < 5.00
pKd [6]: < 5.00
pKd (Insulin receptor): < 5.00
pKd [7]: < 5.00

Nc1nc(Nc2ccc(S(N)(=O)=O)cc2)nn1C(=O)c1c(F)cccc1F [JNJ-7706621]
pKd [1]: < 5.00
pKd [2]: 6.51
pKd [3]: < 5.00
pKd [4]: < 5.00
pKd (Ephrin type-A receptor 1): < 5.00
pKd [5]: 7.49
pKd [6]: 5.82
pKd (Insulin receptor): < 5.00
pKd [7]: 6.80

Oc1ccc(-c2nc(-c3ccncc3)c(-c3ccc(F)cc3)[nH]2)cc1 [SB-202190]
pKd [1]: < 5.00
pKd [2]: < 5.00
pKd [3]: < 5.00
pKd [4]: < 5.00
pKd (Ephrin type-A receptor 1): < 5.00
pKd [5]: < 5.00
pKd [6]: < 5.00
pKd (Insulin receptor): < 5.00
pKd [7]: < 5.00

CCN1CCN(Cc2ccc(NC(=O)Nc3ccc(Oc4cc(NC)ncn4)cc3)cc2C(F)(F)F)CC1 [AST-487]
pKd [1]: < 5.00
pKd [2]: < 5.00
pKd [3]: < 5.00
pKd [4]: < 5.00
pKd (Ephrin type-A receptor 1): < 5.00
pKd [5]: 5.68
pKd [6]: < 5.00
pKd (Insulin receptor): < 5.00
pKd [7]: < 5.00
